# Laboratory results reported in patent US20060069132A1, “Azolecarboxamide herbicides” (priority 2004, published 2006).
# Assays:
# [1] = tested on: barnyardgrass; experiment: Test A pre-/postemergence herbicide test; assay type: in vivo, Echinochloa crus-galli
# In short: (§1)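 Both application timings were run together: directed soil spray over freshly planted seeds in sandy loam, and runoff spray onto 2–10 cm seedlings. Evaluation after ~10 days in greenhouse used a 0–100 visual scale versus untreated controls.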
# [2] = tested on: large crabgrass; experiment: Test A pre-/postemergence herbicide test; assay type: in vivo, Digitaria sanguinalis
# In short: as §1
# [3] = tested on: giant foxtail; experiment: Test A pre-/postemergence herbicide test; assay type: in vivo, Setaria faberi
# In short: as §1
# [4] = tested on: morningglory; experiment: Test A pre-/postemergence herbicide test; assay type: in vivo, Ipomoea spp.
# In short: as §1
# [5] = tested on: redroot pigweed; experiment: Test A pre-/postemergence herbicide test; assay type: in vivo, Amaranthus retroflexus
# In short: as §1
# [6] = tested on: velvetleaf; experiment: Test A pre-/postemergence herbicide test; assay type: in vivo, Abutilon theophrasti
# In short: as §1
# [7] = tested on: barnyardgrass; experiment: Test B pre-/postemergence herbicide test; assay type: in vivo, Echinochloa crus-galli; conditions: for Barnyardgrass plant response rating: postemergence
# In short: (§2)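 Visual rating, 0 (no effect) to 100 (complete control), versus untreated controls after 13–15 d in greenhouse. Pre- and postemergence applications (postemergence plants 2–18 cm, 1–4 leaves); flooded paddy arm at 2-leaf stage. Compounds in non-phytotoxic solvent plus surfactant.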
# [8] = tested on: Surinam grass; experiment: Test B pre-/postemergence herbicide test; assay type: in vivo, Urochloa decumbens; conditions: for Surinam Grass plant response rating: postemergence
# In short: (§3)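 Flooded paddy rice and barnyardgrass were treated at the 2-leaf stage; upland plantings received compound either on sown seed or on 1- to 4-leaf seedlings. All were kept 13–15 days in a greenhouse and scored visually, 0–100, relative to untreated plants.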
# [9] = tested on: cocklebur; experiment: Test B pre-/postemergence herbicide test; assay type: in vivo, Xanthium strumarium; conditions: for Cocklebur plant response rating: postemergence
# In short: as §2
# [10] = tested on: corn; experiment: Test B pre-/postemergence herbicide test; assay type: in vivo, Zea mays; conditions: for Corn plant response rating: postemergence
# In short: as §3
# [11] = tested on: large crabgrass; experiment: Test B pre-/postemergence herbicide test; assay type: in vivo, Digitaria sanguinalis; conditions: for Crabgrass, Large plant response rating: postemergence
# In short: as §3
# [12] = tested on: giant foxtail; experiment: Test B pre-/postemergence herbicide test; assay type: in vivo, Setaria faberi; conditions: for Foxtail, Giant plant response rating: postemergence
# In short: as §3
# [13] = tested on: lambsquarters; experiment: Test B pre-/postemergence herbicide test; assay type: in vivo, Chenopodium album; conditions: for Lambsquarters plant response rating: postemergence
# In short: as §3
# [14] = tested on: morningglory; experiment: Test B pre-/postemergence herbicide test; assay type: in vivo, Ipomoea coccinea; conditions: for Morningglory plant response rating: postemergence
# In short: as §2
# [15] = tested on: pigweed; experiment: Test B pre-/postemergence herbicide test; assay type: in vivo, Amaranthus retroflexus; conditions: for Pigweed plant response rating: postemergence
# In short: as §3
# [16] = tested on: velvetleaf; experiment: Test B pre-/postemergence herbicide test; assay type: in vivo, Abutilon theophrasti; conditions: for Velvetleaf plant response rating: postemergence
# In short: as §3
# [17] = tested on: blackgrass; experiment: Test B postemergence herbicide test; assay type: in vivo, Alopecurus myosuroides; conditions: postemergence
# In short: (§4)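 Visual ratings, 0 (no effect) to 100 (complete control), made versus controls after 13–15 d greenhouse. Paddy plants treated at 2-leaf stage; postemergence plants at 1- to 4-leaf stage, 2–18 cm tall.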
# [18] = tested on: wheat; experiment: Test B postemergence herbicide test; assay type: in vivo, Triticum aestivum; set-up: key to Wheat plant response rating: 0 = no effect, 100 = complete control; conditions: postemergence
# In short: (§5)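 Formulated test chemicals went onto postemergence plants measuring 2 to 18 cm, at one to four leaves. For the paddy assay, species had reached two leaves. Scoring took place 13–15 days later by eye, relative to untreated plants, using 0 for no effect up to 100 for full control.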
# [19] = tested on: wild oat; experiment: Test B postemergence herbicide test; assay type: in vivo, Avena fatua; conditions: postemergence
# In short: as §5
# [20] = tested on: rice; experiment: Test B flooded paddy test; assay type: in vivo, Oryza sativa; conditions: 1000 g ai/ha, scale 0 to 100 (0 no effect, 100 complete control)
# In short: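 After treating 2-leaf paddy plants or 2–18 cm postemergence plants (1 to 4 leaves) with formulated chemical, researchers kept them in a greenhouse for 13–15 days. Effects were judged visually versus controls: 0 indicates none, 100 total control.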
# [21] = tested on: small flower umbrella sedge; experiment: Test B flooded paddy test; assay type: in vivo, Cyperus difformis; conditions: 1000 g ai/ha, scale 0 to 100 (0 no effect, 100 complete control)
# In short: as §4
# [22] = tested on: ducksalad; experiment: Test B flooded paddy test; assay type: in vivo, Heteranthera limosa; conditions: 1000 g ai/ha, scale 0 to 100 (0 no effect, 100 complete control)
# In short: as §4
# [23] = tested on: barnyardgrass; experiment: Test B flooded paddy test; assay type: in vivo, Echinochloa crus-galli; conditions: 1000 g ai/ha, scale 0 to 100 (0 no effect, 100 complete control)
# In short: as §4
# [24] = Postemergence, 500 g ai/ha, 0 to 100 scale, 0 no effect, 100 complete control
# [25] = Postemergence, 2000 g ai/ha, 0 to 100 scale, 0 no effect, 100 complete control
# [26] = Preemergence, 2000 g ai/ha, visual rating, 0 to 100 scale (0 no effect, 100 complete control)
# [27] = preemergence, 500 g ai/ha, visual injury, 0 to 100 scale (0 no effect, 100 complete control)
# [28] = 125 g ai/ha, 0 = no effect, 100 = complete control, preemergence
# [29] = 125 g ai/ha, visual rating, scale 0 (no effect) to 100 (complete control)
# [30] = 500 g ai/ha, visual rating, 0 = no effect, 100 = complete control, preemergence
# [31] = 500 g ai/ha, scale 0 to 100, 0 is no effect, 100 is complete control
compound,measurement,setting,value
COC(=O)c1cccc(NC(=O)c2cc(C(C)(C)C)nn2C)n1 [Compound 312],Barnyardgrass plant response rating,[1]; [24],0
same,"Plant response rating, Barnyardgrass",[1]; [25],0
same,Barnyardgrass plant response rating,[1]; [26],0
same,Barnyardgrass plant response rating,[1]; [27],0
same,"Crabgrass, Large plant response rating",[2]; [24],0
same,"Plant response rating, Crabgrass, Large",[2]; [25],0
same,"Crabgrass, Large plant response rating",[2]; [26],0
same,"Crabgrass, Large plant response rating",[2]; [27],0
same,"Foxtail, Giant plant response rating",[3]; [24],0
same,"Plant response rating, Foxtail, Giant",[3]; [25],0
same,"Foxtail, Giant plant response rating",[3]; [26],0
same,"Foxtail, Giant plant response rating",[3]; [27],0
same,Morningglory plant response rating,[4]; [24],0
same,"Plant response rating, Morningglory",[4]; [25],0
same,Morningglory plant response rating,[4]; [26],0
same,Morningglory plant response rating,[4]; [27],0
same,Pigweed plant response rating,[5]; [24],0
same,"Plant response rating, Pigweed",[5]; [25],0
same,Pigweed plant response rating,[5]; [26],0
same,Pigweed plant response rating,[5]; [27],0
same,Velvetleaf plant response rating,[6]; [24],0
same,"Plant response rating, Velvetleaf",[6]; [25],0
same,Velvetleaf plant response rating,[6]; [26],0
same,Velvetleaf plant response rating,[6]; [27],0
same,Barnyardgrass plant response rating (0 to 100 scale),[7]; [28],0
same,Barnyardgrass plant response rating,[7]; [29],0
same,"Plant response rating, Barnyardgrass",[7]; [30],0
same,Barnyardgrass plant response rating,[7]; [31],0
same,Surinam Grass plant response rating (0 to 100 scale),[8]; [28],0
same,Surinam Grass plant response rating,[8]; [29],0
same,"Plant response rating, Surinam Grass",[8]; [30],0
same,Surinam Grass plant response rating,[8]; [31],0
same,Cocklebur plant response rating (0 to 100 scale),[9]; [28],0
same,Cocklebur plant response rating,[9]; [29],0
same,"Plant response rating, Cocklebur",[9]; [30],0
same,Cocklebur plant response rating,[9]; [31],0
same,Corn plant response rating (0 to 100 scale),[10]; [28],0
same,Corn plant response rating,[10]; [29],0
same,"Plant response rating, Corn",[10]; [30],0
same,Corn plant response rating,[10]; [31],0
same,"Crabgrass, Large plant response rating (0 to 100 scale)",[11]; [28],0
same,"Crabgrass, Large plant response rating",[11]; [29],0
same,"Plant response rating, Crabgrass, Large",[11]; [30],0
same,"Crabgrass, Large plant response rating",[11]; [31],0
same,"Foxtail, Giant plant response rating (0 to 100 scale)",[12]; [28],0
same,"Foxtail, Giant plant response rating",[12]; [29],0
same,"Plant response rating, Foxtail, Giant",[12]; [30],0
same,"Foxtail, Giant plant response rating",[12]; [31],0
same,Lambsquarters plant response rating (0 to 100 scale),[13]; [28],0
same,Lambsquarters plant response rating,[13]; [29],10
same,"Plant response rating, Lambsquarters",[13]; [30],0
same,Lambsquarters plant response rating,[13]; [31],20
same,Morningglory plant response rating (0 to 100 scale),[14]; [28],0
same,Morningglory plant response rating,[14]; [29],0
same,"Plant response rating, Morningglory",[14]; [30],0
same,Morningglory plant response rating,[14]; [31],20
same,Pigweed plant response rating (0 to 100 scale),[15]; [28],0
same,Pigweed plant response rating,[15]; [29],0
same,"Plant response rating, Pigweed",[15]; [30],0
same,Pigweed plant response rating,[15]; [31],20
same,Velvetleaf plant response rating,[16]; [29],0
same,"Plant response rating, Velvetleaf",[16]; [30],0
same,Velvetleaf plant response rating,[16]; [31],0
same,Blackgrass plant response rating,[17]; [29],0
same,Blackgrass plant response rating,[17]; [31],0
same,Wheat plant response rating,[18]; [29],0
same,Wheat plant response rating,[18]; [31],0
same,"Oat, Wild plant response rating",[19]; [29],0
same,"Oat, Wild plant response rating",[19]; [31],0
same,Rice plant response rating,[20],0
same,"Sedge, Umbrella plant response rating",[21],0
same,Ducksalad plant response rating,[22],0
same,Barnyardgrass plant response rating,[23],0
